Legend:
HDAC1 = molecular target: T1, HDAC1 (Homo sapiens, UniProt Q13547); assay: HDAC enzyme activity inhibition (in vitro), HDAC1 Fluorimetric Drug Discovery Assay Kit; assay type: biochemical; details: samples at 100, 1000 and 10000 nM; 37° C. 60 minutes; fluorescence Ex 390, Em 460; read-out: HDAC1 IC50
T1 construct: purchased Enzolifesciences BML-AK511
Summary of the method: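 Compounds at 100, 1000, 10000 nM (HDAC1) or 0.1, 1, 10, 100, 1000 nM (HDAC6); 37° C, 60 min; developer, 37° C, 30 min; fluorescence Ex 390/Em 460.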

HDAC6 human recombinant = molecular target: T2, HDAC6 human recombinant (Homo sapiens, UniProt Q9UBN7); assay: HDAC enzyme activity inhibition (in vitro), HDAC6 assay; assay type: biochemical; details: samples at 0.1, 1, 10, 100 and 1000 nM; 37° C. 60 minutes; fluorescence Ex 390, Em 460; read-out: HDAC6 IC50
T2 construct: purchased Calbiochem 382180
T2 sequence (Q9UBN7 1-1215): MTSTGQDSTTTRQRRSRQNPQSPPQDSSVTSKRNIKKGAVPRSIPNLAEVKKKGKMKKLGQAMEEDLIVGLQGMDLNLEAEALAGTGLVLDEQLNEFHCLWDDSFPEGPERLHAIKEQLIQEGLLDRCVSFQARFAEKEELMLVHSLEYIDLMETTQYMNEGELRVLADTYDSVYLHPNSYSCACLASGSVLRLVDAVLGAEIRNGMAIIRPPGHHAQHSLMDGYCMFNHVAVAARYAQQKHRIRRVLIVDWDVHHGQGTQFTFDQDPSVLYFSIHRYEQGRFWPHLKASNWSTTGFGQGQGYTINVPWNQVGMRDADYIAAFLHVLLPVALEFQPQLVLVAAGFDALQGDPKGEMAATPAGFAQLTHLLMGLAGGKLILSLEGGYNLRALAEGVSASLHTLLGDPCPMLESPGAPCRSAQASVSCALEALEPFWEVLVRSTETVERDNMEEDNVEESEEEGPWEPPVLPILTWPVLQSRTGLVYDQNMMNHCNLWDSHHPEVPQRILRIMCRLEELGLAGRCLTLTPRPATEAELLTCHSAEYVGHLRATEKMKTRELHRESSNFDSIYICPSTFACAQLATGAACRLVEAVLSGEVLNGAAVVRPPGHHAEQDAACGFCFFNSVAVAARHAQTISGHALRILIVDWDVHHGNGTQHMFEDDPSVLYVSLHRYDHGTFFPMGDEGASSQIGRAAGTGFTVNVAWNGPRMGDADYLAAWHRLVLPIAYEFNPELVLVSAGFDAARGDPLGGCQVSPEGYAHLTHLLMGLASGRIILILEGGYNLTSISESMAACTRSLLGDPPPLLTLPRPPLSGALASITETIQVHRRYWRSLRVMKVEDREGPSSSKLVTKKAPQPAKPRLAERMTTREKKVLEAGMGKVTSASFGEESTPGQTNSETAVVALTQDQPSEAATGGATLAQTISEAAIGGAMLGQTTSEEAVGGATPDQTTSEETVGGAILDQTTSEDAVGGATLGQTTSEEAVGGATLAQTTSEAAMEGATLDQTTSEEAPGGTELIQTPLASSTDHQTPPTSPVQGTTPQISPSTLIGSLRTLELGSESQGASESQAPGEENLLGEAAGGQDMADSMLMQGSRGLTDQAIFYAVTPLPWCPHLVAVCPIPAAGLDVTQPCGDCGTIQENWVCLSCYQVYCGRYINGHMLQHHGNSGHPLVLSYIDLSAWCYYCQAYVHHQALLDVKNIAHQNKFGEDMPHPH
Summary of the method: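 HDAC6 human recombinant enzyme with fluorimetric substrate; […]. Reaction 60 min at 37° C, then developer 30 min at 37° C; fluorescence read at Ex 390/Em 460.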

T1 sequence (Q13547 whole entry): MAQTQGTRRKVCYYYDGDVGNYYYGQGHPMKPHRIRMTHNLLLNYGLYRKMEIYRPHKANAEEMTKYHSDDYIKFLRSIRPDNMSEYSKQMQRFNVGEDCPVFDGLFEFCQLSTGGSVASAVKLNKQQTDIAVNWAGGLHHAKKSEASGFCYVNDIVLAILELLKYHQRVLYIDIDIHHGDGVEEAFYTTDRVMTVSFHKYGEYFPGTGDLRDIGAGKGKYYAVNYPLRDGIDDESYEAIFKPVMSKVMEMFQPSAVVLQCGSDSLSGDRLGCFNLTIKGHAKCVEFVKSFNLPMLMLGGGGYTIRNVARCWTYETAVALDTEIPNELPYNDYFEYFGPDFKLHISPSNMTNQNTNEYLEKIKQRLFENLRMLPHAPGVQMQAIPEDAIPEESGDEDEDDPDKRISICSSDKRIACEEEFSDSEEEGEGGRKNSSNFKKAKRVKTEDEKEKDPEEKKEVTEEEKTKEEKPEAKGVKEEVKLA

Structure (SMILES): COCCN1Cc2ccccc2N(Cc2ccc(-c3nnc(C(F)F)o3)cn2)C1=O [Compound 31, 1-((5-(5-(difluoromethyl)-1,3,4-oxadiazole-2-yl)pyridine-2-yl)methyl)-3-(2-methoxyethyl)-3,4-dihydroquinazoline-2(1H)-one]
- IC50 (HDAC1): > 10000 nM
- IC50 (HDAC6 human recombinant): 108 nM

Structure (SMILES): Cn1c(=O)n(Cc2ccc(-c3nnc(C(F)F)o3)cn2)c2cc(F)c(N3CCN(C4COC4)CC3)cc21 [Compound 264, 1-((5-(5-(difluoromethyl)-1,3,4-oxadiazole-2-yl)pyridine-2-yl)methyl)-6-fluoro-3-methy 1-5-(4-(oxetan-3-yl)piperazine-1-yl)-1,3-dihydro-2H-benzo[d]imidazole-2-one]
- IC50 (HDAC1): > 10000 nM
- IC50 (HDAC6 human recombinant): 61 nM

Structure (SMILES): COCCC(=O)N1CCC(n2c(=O)n(Cc3ccc(-c4nnc(C(F)F)o4)cn3)c3cc(F)ccc32)CC1 [Compound 67, 3-((5-(5-(difluoromethyl)-1,3,4-oxadiazole-2-yl)pyridine-2-yl)methyl)-5-fluoro-1-(1-(3-methoxypropanoyl)piperidine-4-yl)-1,3-dihydro-2H-benzo[d]imidazole-2-one]
- IC50 (HDAC1): > 10000 nM
- IC50 (HDAC6 human recombinant): 41 nM

Structure (SMILES): Cc1noc(C)c1-c1ccc2c(c1)n(C1CCN(C)CC1)c(=O)n2Cc1ccc(-c2nnc(C(F)F)o2)cn1 [Compound 210, 1-((5-(5-(difluoromethyl)-1,3,4-oxadiazole-2-yl)pyridine-2-yl)methyl)-5-(3,5-dimethylisoxazole-4-yl)-3-(1-methylpiperidine-4-yl)-1,3-dihydro-2H-benzo[d]imidazole-2-one]
- IC50 (HDAC1): > 10000 nM
- IC50 (HDAC6 human recombinant): 38 nM

Structure (SMILES): CC(=O)N1CCC(n2c(=O)n(Cc3ccc(-c4nnc(C(F)F)o4)cc3F)c3ncccc32)CC1 [Compound 185, 1-(1-acetylpiperidine-4-yl)-3-(4-(5-(difluoromethyl)-1,3,4-oxadiazole-2-yl)-2-fluorobenzyl)-1,3-dihydro-2H-imidazo[4,5-b]pyridine-2-one]
- IC50 (HDAC1): > 10000 nM
- IC50 (HDAC6 human recombinant): 202 nM

Structure (SMILES): CN1CCC(n2c(=O)n(Cc3ccc(-c4nnc(C(F)F)o4)cn3)c3c(F)cccc32)CC1 [Compound 76, 3-((5-(5-(difluoromethyl)-1,3,4-oxadiazole-2-yl)pyridine-2-yl)methyl)-4-fluoro-1-(1-methylpiperidine-4-yl)-1,3-dihydro-2H-benzo[d]imidazole-2-one]
- IC50 (HDAC1): > 10000 nM
- IC50 (HDAC6 human recombinant): 31 nM

Structure (SMILES): CC(C)N1CCC(n2c(=O)n(Cc3ccc(-c4nnc(C(F)F)o4)cn3)c3cc(F)ccc32)CC1 [Compound 51, 3-((5-(5-(difluoromethyl)-1,3,4-oxadiazole-2-yl)pyridine-2-yl)methyl)-5-fluoro-1-(1-isopropylpiperidine-4-yl)-1,3-dihydro-2H-benzo[d]imidazole-2-one]
- IC50 (HDAC1): > 10000 nM
- IC50 (HDAC6 human recombinant): 32 nM

Structure (SMILES): CN1CCC(N2Cc3ccccc3N(Cc3ccc(-c4nnc(C(F)F)o4)cn3)C2=O)CC1 [Compound 8, 1-((5-(5-(difluoromethyl)-1,3,4-oxadiazole-2-yl)pyridine-2-yl)methyl)-3-(1-methylpiperidine-4-yl)-3,4-dihydroquinazoline-2(1H)-one]
- IC50 (HDAC1): > 10000 nM
- IC50 (HDAC6 human recombinant): 171 nM

Structure (SMILES): CN1CCN(c2cc3c(cc2F)n(Cc2ccc(-c4nnc(C(F)F)o4)cn2)c(=O)n3C2COC2)CC1 [Compound 319, 1-((5-(5-(difluoromethyl)-1,3,4-oxadiazole-2-yl)pyridine-2-yl)methyl)-6-fluoro-5-(4-methylpiperazine-1-yl)-3-(oxetan-3-yl)-1,3-dihydro-2H-benzo[d]imidazole-2-one]
- IC50 (HDAC1): > 10000 nM
- IC50 (HDAC6 human recombinant): 39 nM

Structure (SMILES): CCN1CCC[C@H](n2c(=O)n(Cc3ccc(-c4nnc(C(F)F)o4)cn3)c3cc(F)c(-c4cccnc4)cc32)C1 [Compound 298, (S)-1-((5-(5-(difluoromethyl)-1,3,4-oxadiazole-2-yl)pyridine-2-yl)methyl)-3-(1-ethylpiperidine-3-yl)-6-fluoro-5-(pyridine-3-yl)-1,3-dihydro-2H-benzo[d]imidazole-2-one]
- IC50 (HDAC1): > 10000 nM
- IC50 (HDAC6 human recombinant): 9 nM

Structure (SMILES): CN1CCC(n2c(=O)n(Cc3ccc(-c4nnc(C(F)F)o4)cn3)c3ccc(F)cc32)CC1 [Compound 43, 1-((5-(5-(difluoromethyl)-1,3,4-oxadiazole-2-yl)pyridine-2-yl)methyl)-5-fluoro-3-(1-methylpiperidine-4-yl)-1,3-dihydro-2H-benzo[d]imidazole-2-one]
- IC50 (HDAC1): > 10000 nM
- IC50 (HDAC6 human recombinant): 121 nM

Structure (SMILES): CN1CCC(c2ccc3c(c2)oc(=O)n3Cc2ccc(-c3nnc(C(F)F)o3)cn2)CC1 [Compound 309, 3-((5-(5-(difluoromethyl)-1,3,4-oxadiazole-2-yl)pyridine-2-yl)methyl)-6-(1-methylpiperidine-4-yl)benzo[d]oxazole-2(3H)-one]
- IC50 (HDAC1): > 10000 nM
- IC50 (HDAC6 human recombinant): 53 nM

Structure (SMILES): CC(=O)N1CCC(n2c(=O)n(Cc3ccc(-c4nnc(C(F)F)o4)cn3)c3cc(F)c(F)cc32)CC1 [Compound 173, 1-(1-acetylpiperidine-4-yl)-3-((5-(5-(difluoromethyl)-1,3,4-oxadiazole-2-yl)pyridine-2-yl)methyl)-5,6-difluoro-1,3-dihydro-2H-benzo[d]imidazole-2-one]
- IC50 (HDAC1): > 10000 nM
- IC50 (HDAC6 human recombinant): 31 nM

Structure (SMILES): CN1CCC(c2ccc3c(c2)sc(=O)n3Cc2ccc(-c3nnc(C(F)F)o3)cn2)CC1 [Compound 331, 3-((5-(5-(difluoromethyl)-1,3,4-oxadiazole-2-yl)pyridine-2-yl)methyl)-6-(1-methylpiperidine-4-yl)benzo[d]thiazole-2(3H)-one]
- IC50 (HDAC1): > 10000 nM
- IC50 (HDAC6 human recombinant): 61 nM

Structure (SMILES): COc1ccc(-c2ccc3c(c2)n(C2CCN(C)CC2)c(=O)n3Cc2ccc(-c3nnc(C(F)F)o3)cc2F)cn1 [Compound 164, 1-(4-(5-(difluoromethyl)-1,3,4-oxadiazole-2-yl)-2-fluorobenzyl)-5-(6-methoxypyridine-3-yl)-3-(1-methylpiperidine-4-yl)-1,3-dihydro-2H-benzo[d]imidazole-2-one]
- IC50 (HDAC1): > 10000 nM
- IC50 (HDAC6 human recombinant): 61 nM

Structure (SMILES): CN1CCC(N2Cc3ccccc3N(Cc3ccc(-c4nnc(C(F)F)o4)cc3F)C2=O)CC1 [Compound 33, 1-(4-(5-(difluoromethyl)-1,3,4-oxadiazole-2-yl)-2-fluorobenzyl)-3-(1-methylpiperidine-4-yl)-3,4-dihydroquinazoline-2(1H)-one]
- IC50 (HDAC1): > 10000 nM
- IC50 (HDAC6 human recombinant): 169 nM

Structure (SMILES): CN1CC(n2c(=O)n(Cc3ccc(-c4nnc(C(F)F)o4)cn3)c3cc(F)c(-c4ccncc4)cc32)C1 [Compound 259, 1-((5-(5-(difluoromethyl)-1,3,4-oxadiazole-2-yl)pyridine-2-yl)methyl)-6-fluoro-3-(1-methylazetidine-3-yl)-5-(pyridine-4-yl)-1,3-dihydro-2H-benzo[d]imidazole-2-one]
- IC50 (HDAC1): > 10000 nM
- IC50 (HDAC6 human recombinant): 14 nM

Structure (SMILES): O=c1n(Cc2ccc(-c3nnc(C(F)F)o3)cn2)c2cc(F)c(N3CCN(C4COC4)CC3)cc2n1C1COC1 [Compound 321, 1-((5-(5-(difluoromethyl)-1,3,4-oxadiazole-2-yl)pyridine-2-yl)methyl)-6-fluoro-3-(oxetan-3-yl)-5-(4-(oxetan-3-yl)piperazine-1-yl)-1,3-dihydro-2H-benzo[d]imidazole-2-one]
- IC50 (HDAC1): > 10000 nM
- IC50 (HDAC6 human recombinant): 53 nM

Structure (SMILES): CN1CCN(c2ccc(-c3cc4oc(=O)n(Cc5ccc(-c6nnc(C(F)F)o6)cn5)c4cc3F)cn2)CC1 [Compound 346, 3-((5-(5-(difluoromethyl)-1,3,4-oxadiazole-2-yl)pyridine-2-yl)methyl)-5-fluoro-6-(6-(4-methylpiperazine-1-yl)pyridine-3-yl)benzo[d]oxazole-2(3H)-one]
- IC50 (HDAC1): > 10000 nM
- IC50 (HDAC6 human recombinant): 47 nM
